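Five compound concentrations were applied to cells in 96-well plates for 48 hours; endpoints were derived by simple linear interpolation of the resulting dose-response curve. GI50: concentration for 50% inhibition of growth.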 The source made the active and inactive calls. No stated cut-off is given here; in the data, active = GI50 up to about 1.1 µM and inactive = higher.
Columns and labels:
Assay in all cases: DTP human tumour cell line panel, 48 h
[1] = test system: HCC 2998
[2] = test system: SNB-75
[3] = test system: SK-OV-3
[4] = test system: OVCAR-5
[5] = test system: KM12
[6] = test system: HT-29
[7] = test system: PC-3
[8] = test system: EKVX
[9] = test system: CAKI-1
[10] = test system: SK-MEL-5
[11] = test system: SW-620
[12] = test system: HOP-62
[13] = test system: K562
[14] = test system: HL-60
[15] = test system: IGROV-1
[16] = test system: Hs-578T
[17] = test system: SF-268
[18] = test system: UO-31
[19] = test system: COLO 205
[20] = test system: SF-539

| Compound | GI50 [1] | GI50 [2] | GI50 [3] | GI50 [4] | GI50 [5] | GI50 [6] | GI50 [7] | GI50 [8] | GI50 [9] | GI50 [10] | GI50 [11] | GI50 [12] | GI50 [13] | GI50 [14] | GI50 [15] | GI50 [16] | GI50 [17] | GI50 [18] | GI50 [19] | GI50 [20] |
| --- | --- | --- | --- | --- | --- | --- | --- | --- | --- | --- | --- | --- | --- | --- | --- | --- | --- | --- | --- | --- |
| CCCn1cnc2c(SCc3ccc(Cl)cc3)nc(N)nc21 | 20 µM (inactive) | 21.9 µM (inactive) | 27.9 µM (inactive) | 28.4 µM (inactive) | 21.5 µM (inactive) | 19.9 µM (inactive) | 21.2 µM (inactive) | 15.5 µM (inactive) | 24.8 µM (inactive) | 15.3 µM (inactive) | 36.3 µM (inactive) | 17.3 µM (inactive) | 16.2 µM (inactive) | 18.2 µM (inactive) | 40.4 µM (inactive) | 47.2 µM (inactive) | 36.3 µM (inactive) | 5.85 µM (inactive) |  |  |
| COC(C/C=C\C=C\CC/C=C/CC(C)/C=C/C(=C\C(=O)O)CC(=O)O)/C(C)=C\C=C(/C)C(=O)O (stereo unspecified) | > 100 µM (inactive) | 58.3 µM (inactive) | > 100 µM (inactive) | > 100 µM (inactive) | > 100 µM (inactive) | > 100 µM (inactive) | > 100 µM (inactive) | 28.4 µM (inactive) | > 100 µM (inactive) | 99.3 µM (inactive) | > 100 µM (inactive) | > 100 µM (inactive) |  |  | > 100 µM (inactive) | 61.7 µM (inactive) | > 100 µM (inactive) | > 100 µM (inactive) | > 100 µM (inactive) |  |
| Cc1ccc(/N=N/NCCCCN/N=N/c2ccc(C)cc2)cc1 | 13.9 µM (inactive) | > 100 µM (inactive) | > 100 µM (inactive) | > 100 µM (inactive) |  | > 100 µM (inactive) | 4.22 µM (inactive) | > 100 µM (inactive) | > 100 µM (inactive) | 23.4 µM (inactive) | > 100 µM (inactive) | 47.9 µM (inactive) | > 100 µM (inactive) | 1.75 µM (inactive) | 12.5 µM (inactive) | > 100 µM (inactive) | 96.8 µM (inactive) | 0.196 µM (active) | 35.4 µM (inactive) | > 100 µM (inactive) |
| Cc1cn(C2CC(O)C(Cn3nncc3Cn3ncc(=O)[nH]c3=O)O2)c(=O)[nH]c1=O (stereo unspecified) | > 100 µM (inactive) |  | 77.1 µM (inactive) | > 100 µM (inactive) | > 100 µM (inactive) |  | > 100 µM (inactive) | > 100 µM (inactive) | > 100 µM (inactive) | > 100 µM (inactive) | > 100 µM (inactive) | > 100 µM (inactive) |  |  | > 100 µM (inactive) | > 100 µM (inactive) | > 100 µM (inactive) | > 100 µM (inactive) | > 100 µM (inactive) | > 100 µM (inactive) |
| CC(=O)Nc1ccc2nc(N)n[n+]([O-])c2c1 |  | 41.4 µM (inactive) | > 100 µM (inactive) | > 100 µM (inactive) | > 100 µM (inactive) | > 100 µM (inactive) | > 100 µM (inactive) | > 100 µM (inactive) | > 100 µM (inactive) | > 100 µM (inactive) | > 100 µM (inactive) | > 100 µM (inactive) | > 100 µM (inactive) | > 100 µM (inactive) | > 100 µM (inactive) | 92.3 µM (inactive) | > 100 µM (inactive) | > 100 µM (inactive) | > 100 µM (inactive) | > 100 µM (inactive) |
| CC[N+]1(C)CCC(O)(c2ccc(Cl)cc2)C(C(=O)c2ccc(Cl)cc2)C1 (stereo unspecified) | 19.9 µM (inactive) | > 10 µM (inactive) | 14.6 µM (inactive) | 19.1 µM (inactive) | 16.9 µM (inactive) | 29.1 µM (inactive) | 17.5 µM (inactive) | > 10 µM (inactive) |  |  | 1.82 µM (inactive) | 23.8 µM (inactive) | 4.09 µM (inactive) | 7.83 µM (inactive) | 18.5 µM (inactive) | 12.5 µM (inactive) | 24.5 µM (inactive) | 20.1 µM (inactive) | 4.89 µM (inactive) |  |
| CCOC(=O)/C=C1\CCCC12OCCO2 | > 100 µM (inactive) | 77.3 µM (inactive) | > 100 µM (inactive) |  | > 100 µM (inactive) |  |  |  | > 100 µM (inactive) | > 100 µM (inactive) | > 100 µM (inactive) | > 100 µM (inactive) | > 100 µM (inactive) | > 100 µM (inactive) | > 100 µM (inactive) |  | > 100 µM (inactive) | > 100 µM (inactive) | > 100 µM (inactive) | > 100 µM (inactive) |
| COc1cc(/C=C2/C(=O)N(C(=O)OCC(C)C)C(Cc3cc(OC)c(OC)c(C)c3OC)C(=O)N2Cc2ccccc2)c(OC)c(C)c1OC (stereo unspecified) | > 100 µM (inactive) | > 100 µM (inactive) | > 100 µM (inactive) | > 100 µM (inactive) | > 100 µM (inactive) | > 100 µM (inactive) |  | 72.1 µM (inactive) | > 100 µM (inactive) | 74.6 µM (inactive) | > 100 µM (inactive) | 54.7 µM (inactive) | 19.2 µM (inactive) | 8.2 µM (inactive) | > 100 µM (inactive) |  | > 100 µM (inactive) | 11.6 µM (inactive) | 11.2 µM (inactive) | > 100 µM (inactive) |
| CCC1=NC(C(F)(F)F)(C(F)(F)F)N=C(N2CCOCC2)O1 | > 100 µM (inactive) | > 100 µM (inactive) | > 100 µM (inactive) | > 100 µM (inactive) | > 100 µM (inactive) | > 100 µM (inactive) | > 100 µM (inactive) | > 100 µM (inactive) | 34.5 µM (inactive) | > 100 µM (inactive) | > 100 µM (inactive) |  | > 100 µM (inactive) | > 100 µM (inactive) | > 100 µM (inactive) | > 100 µM (inactive) | > 100 µM (inactive) | > 100 µM (inactive) | > 100 µM (inactive) | > 100 µM (inactive) |
| O=c1n(CC2CO2)c2ccccc2n1CC1CS1 (stereo unspecified) | > 100 µM (inactive) |  | > 10 µM (inactive) | > 100 µM (inactive) | > 100 µM (inactive) | > 10 µM (inactive) |  | > 100 µM (inactive) | 45.1 µM (inactive) |  | > 100 µM (inactive) | > 100 µM (inactive) | > 100 µM (inactive) | 11.1 µM (inactive) | > 100 µM (inactive) |  | 91.8 µM (inactive) | > 100 µM (inactive) | > 100 µM (inactive) | > 100 µM (inactive) |
| CC(=O)OCCOCNC(=S)N/N=C/c1cc(Br)cs1 | > 100 µM (inactive) | > 100 µM (inactive) | > 100 µM (inactive) | > 100 µM (inactive) | > 100 µM (inactive) | > 100 µM (inactive) |  | > 100 µM (inactive) |  | > 100 µM (inactive) | > 100 µM (inactive) | > 100 µM (inactive) | > 100 µM (inactive) | > 100 µM (inactive) | > 100 µM (inactive) |  | > 100 µM (inactive) | > 100 µM (inactive) | > 100 µM (inactive) | > 100 µM (inactive) |
| NC1CCC2(O)c3ccccc3C2C1 (stereo unspecified) |  | > 100 µM (inactive) | > 100 µM (inactive) |  | > 100 µM (inactive) | > 100 µM (inactive) |  | > 100 µM (inactive) |  | > 100 µM (inactive) | > 100 µM (inactive) | > 100 µM (inactive) | > 100 µM (inactive) | > 100 µM (inactive) |  |  | > 100 µM (inactive) | > 100 µM (inactive) | > 100 µM (inactive) |  |
| Cc1ccc(/N=N/c2c(C)nn(-c3ccccc3)c2-c2ccccc2)c(Br)c1 | 61.8 µM (inactive) | > 100 µM (inactive) | > 100 µM (inactive) |  | > 100 µM (inactive) | 27.6 µM (inactive) |  | > 100 µM (inactive) | > 100 µM (inactive) |  | 63.5 µM (inactive) | > 100 µM (inactive) | 25.4 µM (inactive) | 4.3 µM (inactive) | > 100 µM (inactive) |  | > 100 µM (inactive) | > 100 µM (inactive) |  | 20.2 µM (inactive) |
| CC1ON2CCCC2[C@H]1C(=O)N1C2CC3CCC2(CS1(=O)=O)C3(C)C (stereo partly specified) |  | > 100 µM (inactive) | > 100 µM (inactive) | > 100 µM (inactive) | > 100 µM (inactive) | > 100 µM (inactive) | > 100 µM (inactive) | > 100 µM (inactive) | > 100 µM (inactive) | > 100 µM (inactive) | > 100 µM (inactive) | > 100 µM (inactive) | > 100 µM (inactive) | > 100 µM (inactive) | > 100 µM (inactive) | > 100 µM (inactive) | > 100 µM (inactive) | > 100 µM (inactive) | > 100 µM (inactive) | > 100 µM (inactive) |
| CCOc1ccc(C(C)c2cc3c(cc2OC)OCO3)cc1 (stereo unspecified) | 0.466 µM (active) | 0.277 µM (active) | 0.32 µM (active) | 65.5 µM (inactive) |  | 0.237 µM (active) |  |  | 0.834 µM (active) | 0.269 µM (active) | 0.259 µM (active) | 0.323 µM (active) |  |  | 2.75 µM (inactive) |  | 1.05 µM (active) | 0.491 µM (active) |  | 0.271 µM (active) |
| C=C(C)C1CC2=C(O1)C(=O)c1ccccc1C2=O (stereo not drawn) [DEHYDROISO-ALPHA-LAPACHONE] | 19.1 µM (inactive) | 17.6 µM (inactive) | > 100 µM (inactive) |  | 18.3 µM (inactive) | 20.9 µM (inactive) |  | 25.7 µM (inactive) | 17.6 µM (inactive) | 14 µM (inactive) | 23.6 µM (inactive) | 19.6 µM (inactive) | 18.6 µM (inactive) | 3.38 µM (inactive) | 20 µM (inactive) |  |  |  | 19.3 µM (inactive) | 18.5 µM (inactive) |
